Results published in US5462954A, “Substituted phenyl phenol leukotriene antagonists” (Eli Lilly and Company, priority 1994, dated 1995).
Counter-ions that a name gives are not always drawn.

biological target: binding of tritiated LTB4 to guinea pig lung membranes (Cavia porcellus, UniProt H0VYV8); test: biochemical; settings: read-out: pKi (mean -log Ki) (converted)
Sequence (H0VYV8 1-348): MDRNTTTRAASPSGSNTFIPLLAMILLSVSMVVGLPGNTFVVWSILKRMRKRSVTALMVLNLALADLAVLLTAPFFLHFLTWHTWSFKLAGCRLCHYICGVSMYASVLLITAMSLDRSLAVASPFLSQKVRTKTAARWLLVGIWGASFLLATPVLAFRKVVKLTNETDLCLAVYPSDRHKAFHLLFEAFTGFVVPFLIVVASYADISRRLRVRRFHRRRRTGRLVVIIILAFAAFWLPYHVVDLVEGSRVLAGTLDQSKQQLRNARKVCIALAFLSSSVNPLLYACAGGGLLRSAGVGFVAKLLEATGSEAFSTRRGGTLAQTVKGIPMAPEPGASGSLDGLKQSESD
Procedure: The effectiveness of compounds of Formula I to inhibit the binding of tritiated LTB4 to guinea pig lung membranes was determined as follows.
The binding reaction was terminated by the addition of 1 mL ice cold wash buffer (25 mM Tris-HCl, pH 7.5) followed immediately by vacuum filtration over Whatman GF/C glass fiber filters using a Brandel (Gaithersburg, Md.) 48 place harvester. The filters were washed three times with 1 mL of wash buffer. Retained radioactivity was determined by liquid scintillation counting at 50% counting efficiency using Ready Protein Plus cocktail (Beckman, Fullerton, Calif.). Nondisplaceable binding was determined in the presence of 1 μM LTB4 and was usually less than 10% of total binding. […] The data reported below is the mean -log Ki, otherwise known as the pKi, for n experiments.

| SMILES | Ki |
| --- | --- |
| CCc1cc(-c2ccc(F)cc2)c(O)cc1OCCCOc1ccccc1C(O)C(C)(C)c1nnn[nH]1 (centres unmarked) [Example 29, 2-Methyl-2-(1H-tetrazol-5-yl)-3-hydroxy-3-(2-(3-(2-ethyl-4-(4-fluorophenyl)-5-hydroxyphenoxy)propoxy)phenyl)propane] | 1.95 nM |
| CCc1cc(-c2ccc(F)cc2)c(O)cc1OCCCOc1ccc(CCCCC(=O)O)c2c1CCC(=O)O2 [Example 33, 5-(3-(2-Ethyl-4-(4-fluorophenyl)-5-hydroxyphenoxy)propoxy)-8-(4-carboxybutyl)dihydrocoumarin] | 0.257 nM |
| CCc1cc(-c2ccc(F)cc2)c(O)cc1OCCCOc1cc(OCCCCC(=O)O)ccc1CCC(=O)O [Example 90, 3-(2-(3-(2-Ethyl-4-(4-fluorophenyl)-5-hydroxyphenoxy)propoxy)-4-(4-carboxybutyloxy)phenyl)propionic acid] | 20.9 nM |
| CCc1cc(-c2ccccc2)c(O)cc1OCCCOc1ccc2c(=O)c3cc(C(=O)O)ccc3oc2c1CCC(=O)O [Example 60, 7-Carboxy-9-oxo-3-[3-(2-ethyl-5-hydroxy-4-phenylphenoxy)propoxy]-9H-xanthene-4-propanoic acid disodium salt monohydrate] | 0.0646 nM |
| CCCCc1c(OCCCOc2cc(O)c(-c3ccc(F)cc3)cc2CC)cccc1Oc1ccccc1C(=O)O [Example 75, 2-[2-Butyl-3-[3-[2-ethyl-5-hydroxy-4-(4-fluorophenyl)phenoxy]propoxy]phenoxy]benzoic acid hydrate] | 16.2 nM |
| CCc1cc(-c2ccc(F)cc2)c(O)cc1OCCCOc1ccccc1CCc1nnn[nH]1 [Example 89, 5-(2-(2-(3-(2-Ethyl-4-(4-fluorophenyl)-5-hydroxyphenoxy)propoxy)phenyl)ethyl)-1H-tetrazole] | 14.1 nM |
| CCCc1c(CCC(=O)O)cccc1OCCCOc1cc(O)c(-c2ccccc2)cc1CC [Example 96, disodium salt] | 25.1 nM |
| CCc1cc(-c2ccc(F)cc2)c(O)cc1OCCCOc1cccc(Oc2ccccc2C(=O)O)c1CC(C)C [Example 74, 2-[2-(2-Methylpropyl)-3-[3-[2-ethyl-5-hydroxy-4-(4-fluorophenyl)phenoxy]propoxy]phenoxy]benzoic acid] | 13.8 nM |
| CCc1cc(-c2ccc(F)cc2)c(O)cc1OCCCOc1cc(Oc2ccc(C(=O)O)cc2)ccc1CCC(=O)O [Example 26, 3-(2-(3-(2-Ethyl-4-(4-fluorophenyl)-5-hydroxyphenoxy)propoxy)-4-(4-carboxyphenoxy)phenyl)propionic acid] | 13.8 nM |

Further lines, results first:

| Ki | SMILES |
| --- | --- |
| 9.55 nM | CCCc1c(OCCCOc2cc(O)c(-c3ccc(F)cc3)cc2CC)cccc1C(=O)c1ccccc1C(=O)O [Example 78, 2-[2-Propyl-3-[3-[2-ethyl-5-hydroxy-4-(4-fluorophenyl)phenoxy]propoxy]benzoyl]benzoic acid] |
| 11.2 nM | CCCc1c(OCCCOc2cc(O)c(-c3ccc(F)cc3)cc2CC)cccc1Sc1ccccc1C(=O)O [Example 80, 2-[2-Propyl-3-[3-[2-ethyl-4-(4-fluorophenyl)-5-hydroxyphenoxy]propoxy]thiophenoxy]benzoic acid] |
| 186 nM | O=C(O)CCc1ccccc1OCCCOc1cc(O)c(-c2ccc(F)cc2)cc1Br [Example 30, 3-(2-(3-(2-Bromo-4-(4-fluorophenyl)-5-hydroxyphenoxy)propoxy)phenyl)propionic acid] |
| 2.29 nM | CCc1cc(-c2ccc(F)cc2)c(O)cc1OCCCOc1ccccc1CCC(=O)NS(=O)(=O)c1ccccc1 [Example 20, N-Phenylsulfonyl-3-(2-(3-(2-ethyl-4-(4-fluorophenyl)-5-hydroxyphenoxy)propoxy)phenyl)propionamide] |
| 10.2 nM | CCCc1c(OCCCOc2cc(O)c(-c3ccc(F)cc3)cc2CC)cccc1S(=O)(=O)c1ccccc1C(=O)O [Example 82, 2-[2-Propyl-3-[3-[2-ethyl-4-(4-fluorophenyl)-5-hydroxyphenoxy]propoxy]phenylsulfonyl]benzoic acid hydrate] |
